Entries after “also recorded” stand apart in the source; their conditions may differ.
Legend:
hippocampal slice = test: Seizure-like activity in hippocampal slices in magnesium-free aCSF; conditions: 100 μM for thirty minutes
Experimental: Hippocampal slices were bathed in magnesium-free artificial cerebrospinal fluid (aCSF). The absence of magnesium in the fluid makes neurons in the slice susceptible to seizure-like electrical activity. Accordingly, the hippocampal slice maintained in magnesium-free fluid provides a model system for epilepsy. Electrical potential was measured prior to addition of any compounds, after treatment with PcTX venom followed by electrical stimulation, after PcTX venom was removed, with amiloride, during transient removal of kyneuric acid, and kainic acid to promote seizure activity in the mice with or without injection of PcTX venom.
The three graphs in panel 23A show the electrical potential measured from the same hippocampal slice after electrical stimulation near the beginning of each voltage trace, to promote depolarization followed by re-polarization (a peak(s) in the voltage trace). Electrical stimulation of a control hippocampal slice, bathed in fluid with a physiological magnesium level, produced a single peak in the voltage trace (not shown here). In contrast, as shown here in the first graph of panel 23A, electrical stimulation of a hippocampal slice maintained in aCSF without magnesium produced a series of individual peaks, indicative of seizure-like activity.

[1] = test system: cortical neurons cultured from ASIC+/+ and ASIC1-/- mice; test: LDH release in neurons cultured from ASIC+/+ and ASIC1-/- mice; assay type: cell-based, mouse
Experimental: Following anesthesia with halothane, cerebral cortices were dissected from PI ASIC1^+/+ and ASIC1^−/− mice and incubated with 0.05% trypsin-EDTA for 10 min at 37° C. Tissues were then triturated with fire-polished glass pipettes and plated on poly-L-ornithine-coated 24-well plates or 25×25 mm glass coverslips at a density of 2.5×10^5 cells per well or 10^6 cells per coverslip. Neurons were cultured with MEM supplemented with 10% horse serum (for E16 cultures) or Neurobasal medium supplemented with B27 (for P1 cultures) and used for electrophysiology and toxicity studies after 12 days. Glial growth was suppressed by addition of 5-fluoro-2-deoxyuridine and uridine, yielding cultured cells with ˜90% neurons as determined by NeuN and GFAP staining (data not shown).
Cells were treated with either pH 7.4 or 6.0 ECF for 1 hr. LDH release was measured 24 hr after acid incubation. […] Background absorbance at 620 was subtracted.

[2] = biological target: T1, ASICs in cortical neurons (Mus musculus, UniProt Q6NXK8); test: Ca2+-mediated acid-activated current in cortical neurons (10 mM Ca2+ as only charge carrier); assay type: cell-based; conditions: pH 6.0, -60 mV, n=6, read-out: peak amplitude of Ca2+-mediated current, % of control
T1 construct: indicating significant Ca^2+ permeability of ASICs in the majority of cortical neurons; endogenous in cells; host or cells: primary cultured mouse cortical neurons
T1 sequence (Q6NXK8 1-526): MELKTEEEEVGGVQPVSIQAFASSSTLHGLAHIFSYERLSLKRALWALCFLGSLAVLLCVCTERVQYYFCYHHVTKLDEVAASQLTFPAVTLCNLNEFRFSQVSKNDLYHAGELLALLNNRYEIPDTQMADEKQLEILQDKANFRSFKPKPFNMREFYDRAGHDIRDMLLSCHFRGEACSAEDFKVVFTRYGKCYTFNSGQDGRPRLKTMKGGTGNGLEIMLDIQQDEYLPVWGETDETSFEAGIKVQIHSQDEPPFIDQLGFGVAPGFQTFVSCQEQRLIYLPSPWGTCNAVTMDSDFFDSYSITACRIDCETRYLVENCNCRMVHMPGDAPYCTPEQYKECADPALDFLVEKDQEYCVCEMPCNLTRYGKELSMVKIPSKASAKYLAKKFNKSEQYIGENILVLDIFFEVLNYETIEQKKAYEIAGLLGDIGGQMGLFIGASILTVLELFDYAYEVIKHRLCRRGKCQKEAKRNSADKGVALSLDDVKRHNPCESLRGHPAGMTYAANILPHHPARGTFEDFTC

[3] = test system: cultured hippocampal neurons; test: Seizure-like electrical activity of cultured hippocampal neurons on kyneuric acid removal; assay type: cell-based; conditions: during kyneuric acid removal
Experimental: The neurons were grown in the presence of kyneuric acid. Removal of the kyneuric acid promoted spontaneous, sustained electrical activity by the neurons.
The magnitude and periodicity of the peaks in the voltage traces changed upon exposure to amiloride.

[4] = test system: rat model of transient focal ischemia; assay type: in vivo; conditions: n=11
cortical neurons [5] = test: Acid-induced LDH release in cortical neurons
cortical neurons [6] = assay type: cell-based, mouse; conditions: with MK801, CNQX, nimodipine, ω-conotoxin MVIIC; n=6-8
TRPM7 channels = TRPM7 channels (Homo sapiens, UniProt Q96QT4); test: TRPM7 conductance, current-voltage relationship; assay type: cell-based; conditions: 100 μM or 500 μM, ~10 min
Experimental: In FIG. 36, after a stable current-voltage relationship (I-V curve) was recorded, amiloride at either 100 μM or 500 μM was perfused to the cell for ˜10 min. The I-V curve in the presence of amilolide was then generated (FIG. 36 A). Similarly in FIG. 36B, after a stable I-V curve was recorded, PcTX venom at 300 ng/ml was perfused to the cell for ˜10 min. The I-V curve in the presence of PcTX venom was then generated.

[7] = test system: COS-7 cells stably transfected with ASIC1a; test: Acid-induced LDH release in ASIC1a-transfected COS-7 cells; assay type: cell-based; conditions: 100 μM, 1 hr pH 6.0, 24 hr
Experimental: COS-7 cells, a cell line commonly used for expression of ASICs due to its lack of endogenous channels (Chen et al. 1998; Immke and McCleskey 2001 and Escoubas et al. 2000), were cultured in MEM with 10% HS and 1% PenStrep (GIBCO). At ˜50% confluence, cells were cotransfected with cDNAs for ASICs and GFP in pcDNA3 vector using FuGENE6 transfection reagents (Roche Molecular Biochemicals). DNA for ASICs (0.75 μg) and 0.25 μg of DNA for GFP were used for each 35 mm dish. GFP-positive cells were selected for patch-clamp recording 48 hr after transfection. For stable transfection of ASIC1a, 500 μg/mL G418 was added to culture medium 1 week following the transfection. The surviving G418-resistant cells were further plated and passed for >5 passages in the presence of G418. Cells were then checked with patch-clamp and immunofluorescent staining for the expression of ASIC1a.
To provide additional evidence that activation of ASIC1a is involved in acid injury, acid injury of nontransfected and ASIC1a transfected COS-7 cells as described above was studied. Following confluence (36-48 hr after plating), cells were treated with either pH 7.4 or 6.0 ECF for 1 hr.
LDH release was measured 24 hr after acid incubation. […] Background absorbance at 620 was subtracted.

TRPM7 channels, sequence (Q96QT4 whole entry, the tested form may be a part): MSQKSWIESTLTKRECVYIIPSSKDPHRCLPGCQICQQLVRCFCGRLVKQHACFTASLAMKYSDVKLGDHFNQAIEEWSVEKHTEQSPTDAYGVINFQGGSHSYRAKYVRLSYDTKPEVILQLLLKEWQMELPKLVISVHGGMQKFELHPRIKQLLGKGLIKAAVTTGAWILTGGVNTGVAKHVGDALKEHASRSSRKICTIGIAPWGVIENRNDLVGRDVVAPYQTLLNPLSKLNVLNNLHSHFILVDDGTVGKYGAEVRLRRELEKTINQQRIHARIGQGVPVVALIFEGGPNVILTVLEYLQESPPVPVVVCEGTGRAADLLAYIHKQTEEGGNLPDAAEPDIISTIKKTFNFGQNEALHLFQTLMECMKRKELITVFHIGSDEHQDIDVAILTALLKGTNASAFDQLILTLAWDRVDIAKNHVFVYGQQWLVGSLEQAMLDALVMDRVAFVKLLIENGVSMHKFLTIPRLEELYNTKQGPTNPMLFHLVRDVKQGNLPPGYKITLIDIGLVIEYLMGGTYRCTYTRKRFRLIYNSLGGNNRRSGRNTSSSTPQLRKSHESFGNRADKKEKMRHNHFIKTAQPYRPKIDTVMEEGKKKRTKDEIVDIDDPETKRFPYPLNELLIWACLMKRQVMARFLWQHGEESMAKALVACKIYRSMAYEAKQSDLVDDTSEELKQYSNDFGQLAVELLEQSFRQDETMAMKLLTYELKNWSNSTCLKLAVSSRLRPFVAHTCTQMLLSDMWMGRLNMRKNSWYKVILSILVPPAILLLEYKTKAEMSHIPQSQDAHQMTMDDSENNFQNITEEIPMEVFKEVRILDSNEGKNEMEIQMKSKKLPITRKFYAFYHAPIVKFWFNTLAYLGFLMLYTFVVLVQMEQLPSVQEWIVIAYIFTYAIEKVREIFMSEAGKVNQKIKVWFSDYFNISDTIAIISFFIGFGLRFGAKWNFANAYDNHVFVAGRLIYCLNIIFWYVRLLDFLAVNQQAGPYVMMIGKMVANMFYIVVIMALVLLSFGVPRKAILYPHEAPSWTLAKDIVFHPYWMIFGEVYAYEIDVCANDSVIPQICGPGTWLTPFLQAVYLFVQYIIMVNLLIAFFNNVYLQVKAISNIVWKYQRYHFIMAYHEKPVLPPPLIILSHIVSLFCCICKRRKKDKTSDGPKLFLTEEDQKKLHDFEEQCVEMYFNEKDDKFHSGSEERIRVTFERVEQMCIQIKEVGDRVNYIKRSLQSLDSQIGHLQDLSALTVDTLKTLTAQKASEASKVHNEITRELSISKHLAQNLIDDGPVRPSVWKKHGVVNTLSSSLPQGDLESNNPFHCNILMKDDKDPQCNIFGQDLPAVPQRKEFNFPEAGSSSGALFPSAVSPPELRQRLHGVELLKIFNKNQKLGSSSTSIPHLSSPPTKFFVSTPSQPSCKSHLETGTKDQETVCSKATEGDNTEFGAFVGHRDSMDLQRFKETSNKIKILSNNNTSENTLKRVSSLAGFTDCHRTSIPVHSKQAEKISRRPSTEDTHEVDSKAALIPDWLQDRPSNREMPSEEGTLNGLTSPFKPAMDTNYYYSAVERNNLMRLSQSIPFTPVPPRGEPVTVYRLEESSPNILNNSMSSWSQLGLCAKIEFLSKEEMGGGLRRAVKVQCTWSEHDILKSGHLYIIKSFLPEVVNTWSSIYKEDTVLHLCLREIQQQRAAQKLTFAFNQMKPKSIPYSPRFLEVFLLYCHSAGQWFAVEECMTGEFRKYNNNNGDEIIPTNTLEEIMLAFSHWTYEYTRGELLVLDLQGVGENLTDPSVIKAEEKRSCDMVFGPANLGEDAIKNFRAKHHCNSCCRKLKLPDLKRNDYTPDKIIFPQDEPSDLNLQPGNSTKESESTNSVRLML

N=C(N)NC(=O)c1nc(Cl)c(N)nc1N [amiloride]
peaks in voltage trace after electrical stimulation (hippocampal slice): reduced both the number and amplitude of peaks | acid-induced LDH release in ASIC+/+ neurons ([1]; 1 hr pH 6.0, n=8-12): reduced | effect on acid-induced LDH release in ASIC1-/- neurons ([1]; knockout of the ASIC1 gene, n=8): eliminated the effect | remaining activity at 100 µM [2]: 26% | seizure-like electrical activity of neurons [3]: blocked the seizure-like electrical activity | infarct volume [4]: 229.7±41.1 mm^3 | LDH release at 24 hr, % of maximal (cortical neurons [5]; 100 μM, 10 min before and during 1 hr pH 6.0, without blocker 45.3%±3.8%): 31.1%±2.5% | LDH release on prolonged incubation (cortical neurons [5]; alone, e.g. 5 hr, n=8): increased LDH release | baseline LDH release (cortical neurons [5]; pH 7.4 ECF for 1 hr): did not affect baseline LDH release | peak and sustained acid-induced increases in [Ca2+]i (cortical neurons [6]): largely inhibited | conductance of TRPM7 channels (TRPM7 channels): had no effect; also recorded: lack of blockade | acid-induced LDH release [7]: inhibited acid-induced LDH release
